# Laboratory results from patent US20230017045A1, “PYRIDINE AND PYRIMIDINE CARBOXYLATE HERBICIDES AND METHODS OF USE THEREOF” (Dow AgroSciences LLC, priority 2017, published 2023).
# Test system: test plant species
# Test: Post-emergent herbicidal activity test (greenhouse, foliar spray, visual growth reduction)
# Type: in vivo
# Conditions: post-emergence, 336 h, ALOMY: blackgrass (Alopecurus myosuroides), 140 g ai/ha, 14 days after application, read-out: Visual Growth Reduction (%) 14 Days After Application, ALOMY
# In short: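 Plants grown in greenhouse (15 h photoperiod, 23-29° C day/22-28° C night) to first or second true leaf stage were sprayed overhead with compound in acetone/water/isopropanol/DMSO/crop oil/X-77 carrier at 187 L/ha. Injury was scored visually after 14 d on a 0-100% scale versus solvent-blank and untreated controls.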
row,Compound,pest or weed control at 140 g/ha [%]
1,"COC(=O)c1nc(-c2ccc(-c3ccc(F)cc3)cc2Cl)ccc1Cl [F25, methyl 3-chloro-6-(3-chloro-4′-fluoro-[1, 1′-biphenyl]-4-yl) picolinate]",0 to 29
2,"COC(=O)c1nc(-c2ccc3c(c2F)OCO3)ccc1Cl [F85, Methyl 3-chloro-6-(4-fluorobenzo[d][1,3]dioxol-5-yl)picolinate]",0 to 29

# Same assay, conditions: post-emergence, 336 h, AMARE: redroot pigweed (Amaranthus retroflexus), 140 g ai/ha, 14 days after application, read-out: Visual Growth Reduction (%) 14 Days After Application, AMARE
row,Compound,pest or weed control at 140 g/ha [%]
1,"COC(=O)c1nc(-c2ccc(-c3ccc(F)cc3)cc2Cl)ccc1Cl [F25, methyl 3-chloro-6-(3-chloro-4′-fluoro-[1, 1′-biphenyl]-4-yl) picolinate]",0 to 29
2,"COC(=O)c1nc(-c2ccc3c(c2F)OCO3)ccc1Cl [F85, Methyl 3-chloro-6-(4-fluorobenzo[d][1,3]dioxol-5-yl)picolinate]",0 to 29

# Same assay, conditions: post-emergence, 336 h, AVEFA: wild oat (Avena fatua), 140 g ai/ha, 14 days after application, read-out: Visual Growth Reduction (%) 14 Days After Application, AVEFA
row,Compound,pest or weed control at 140 g/ha [%]
1,"COC(=O)c1nc(-c2ccc(-c3ccc(F)cc3)cc2Cl)ccc1Cl [F25, methyl 3-chloro-6-(3-chloro-4′-fluoro-[1, 1′-biphenyl]-4-yl) picolinate]",0 to 29
2,"COC(=O)c1nc(-c2ccc3c(c2F)OCO3)ccc1Cl [F85, Methyl 3-chloro-6-(4-fluorobenzo[d][1,3]dioxol-5-yl)picolinate]",0 to 29

# Same assay, conditions: post-emergence, 336 h, CHEAL: lambsquarters (Chenopodium album), 140 g ai/ha, 14 days after application, read-out: Visual Growth Reduction (%) 14 Days After Application, CHEAL
row,Compound,pest or weed control at 140 g/ha [%]
1,"COC(=O)c1nc(-c2ccc(-c3ccc(F)cc3)cc2Cl)ccc1Cl [F25, methyl 3-chloro-6-(3-chloro-4′-fluoro-[1, 1′-biphenyl]-4-yl) picolinate]",0 to 29
2,"COC(=O)c1nc(-c2ccc3c(c2F)OCO3)ccc1Cl [F85, Methyl 3-chloro-6-(4-fluorobenzo[d][1,3]dioxol-5-yl)picolinate]",75 to 84

# Same assay, conditions: post-emergence, 336 h, CIRAR: canada thistle (Cirsium arvense), 140 g ai/ha, 14 days after application, read-out: Visual Growth Reduction (%) 14 Days After Application, CIRAR
row,Compound,pest or weed control at 140 g/ha [%]
1,"COC(=O)c1nc(-c2ccc(-c3ccc(F)cc3)cc2Cl)ccc1Cl [F25, methyl 3-chloro-6-(3-chloro-4′-fluoro-[1, 1′-biphenyl]-4-yl) picolinate]",0 to 29
2,"COC(=O)c1nc(-c2ccc3c(c2F)OCO3)ccc1Cl [F85, Methyl 3-chloro-6-(4-fluorobenzo[d][1,3]dioxol-5-yl)picolinate]",0 to 29

# Same assay, conditions: post-emergence, 336 h, CYPES: yellow nutsedge (Cyperus esculentus), 140 g ai/ha, 14 days after application, read-out: Visual Growth Reduction (%) 14 Days After Application, CYPES
row,Compound,pest or weed control at 140 g/ha [%]
1,"COC(=O)c1nc(-c2ccc(-c3ccc(F)cc3)cc2Cl)ccc1Cl [F25, methyl 3-chloro-6-(3-chloro-4′-fluoro-[1, 1′-biphenyl]-4-yl) picolinate]",0 to 29
2,"COC(=O)c1nc(-c2ccc3c(c2F)OCO3)ccc1Cl [F85, Methyl 3-chloro-6-(4-fluorobenzo[d][1,3]dioxol-5-yl)picolinate]",0 to 29

# Same assay, conditions: post-emergence, 336 h, DIGSA: crabgrass (Digitaria sanguinalis), 140 g ai/ha, 14 days after application, read-out: Visual Growth Reduction (%) 14 Days After Application, DIGSA
row,Compound,pest or weed control at 140 g/ha [%]
1,"COC(=O)c1nc(-c2ccc(-c3ccc(F)cc3)cc2Cl)ccc1Cl [F25, methyl 3-chloro-6-(3-chloro-4′-fluoro-[1, 1′-biphenyl]-4-yl) picolinate]",0 to 29
2,"COC(=O)c1nc(-c2ccc3c(c2F)OCO3)ccc1Cl [F85, Methyl 3-chloro-6-(4-fluorobenzo[d][1,3]dioxol-5-yl)picolinate]",0 to 29

# Same assay, conditions: post-emergence, 336 h, ECHCG: barnyardgrass (Echinochloa crus-galli), 140 g ai/ha, 14 days after application, read-out: Visual Growth Reduction (%) 14 Days After Application, ECHCG
row,Compound,pest or weed control at 140 g/ha [%]
1,"COC(=O)c1nc(-c2ccc(-c3ccc(F)cc3)cc2Cl)ccc1Cl [F25, methyl 3-chloro-6-(3-chloro-4′-fluoro-[1, 1′-biphenyl]-4-yl) picolinate]",0 to 29
2,"COC(=O)c1nc(-c2ccc3c(c2F)OCO3)ccc1Cl [F85, Methyl 3-chloro-6-(4-fluorobenzo[d][1,3]dioxol-5-yl)picolinate]",30 to 44

# Same assay, conditions: post-emergence, 336 h, IPOHE: ivy-leaf morning glory (Ipomoea hederacea), 140 g ai/ha, 14 days after application, read-out: Visual Growth Reduction (%) 14 Days After Application, IPOHE
row,Compound,pest or weed control at 140 g/ha [%]
1,"COC(=O)c1nc(-c2ccc(-c3ccc(F)cc3)cc2Cl)ccc1Cl [F25, methyl 3-chloro-6-(3-chloro-4′-fluoro-[1, 1′-biphenyl]-4-yl) picolinate]",0 to 29
2,"COC(=O)c1nc(-c2ccc3c(c2F)OCO3)ccc1Cl [F85, Methyl 3-chloro-6-(4-fluorobenzo[d][1,3]dioxol-5-yl)picolinate]",0 to 29

# Same assay, conditions: post-emergence, 336 h, KCHSC: kochia (Bassia scoparia), 140 g ai/ha, 14 days after application, read-out: Visual Growth Reduction (%) 14 Days After Application, KCHSC
row,Compound,pest or weed control at 140 g/ha [%]
1,"COC(=O)c1nc(-c2ccc(-c3ccc(F)cc3)cc2Cl)ccc1Cl [F25, methyl 3-chloro-6-(3-chloro-4′-fluoro-[1, 1′-biphenyl]-4-yl) picolinate]",0 to 29
2,"COC(=O)c1nc(-c2ccc3c(c2F)OCO3)ccc1Cl [F85, Methyl 3-chloro-6-(4-fluorobenzo[d][1,3]dioxol-5-yl)picolinate]",45 to 59

# Same assay, conditions: post-emergence, 336 h, ORYSA: rice (Oryza sativa), 140 g ai/ha, 14 days after application, read-out: Visual Growth Reduction (%) 14 Days After Application, ORYSA
row,Compound,pest or weed control at 140 g/ha [%]
1,"COC(=O)c1nc(-c2ccc(-c3ccc(F)cc3)cc2Cl)ccc1Cl [F25, methyl 3-chloro-6-(3-chloro-4′-fluoro-[1, 1′-biphenyl]-4-yl) picolinate]",0 to 29
2,"COC(=O)c1nc(-c2ccc3c(c2F)OCO3)ccc1Cl [F85, Methyl 3-chloro-6-(4-fluorobenzo[d][1,3]dioxol-5-yl)picolinate]",0 to 29

# Same assay, conditions: post-emergence, 336 h, SETFA: giant foxtail (Setaria faberi), 140 g ai/ha, 14 days after application, read-out: Visual Growth Reduction (%) 14 Days After Application, SETFA
row,Compound,pest or weed control at 140 g/ha [%]
1,"COC(=O)c1nc(-c2ccc(-c3ccc(F)cc3)cc2Cl)ccc1Cl [F25, methyl 3-chloro-6-(3-chloro-4′-fluoro-[1, 1′-biphenyl]-4-yl) picolinate]",0 to 29
2,"COC(=O)c1nc(-c2ccc3c(c2F)OCO3)ccc1Cl [F85, Methyl 3-chloro-6-(4-fluorobenzo[d][1,3]dioxol-5-yl)picolinate]",0 to 29

# Same assay, conditions: post-emergence, 336 h, SORVU: grain sorghum (Sorghum vulgare), 140 g ai/ha, 14 days after application, read-out: Visual Growth Reduction (%) 14 Days After Application, SORVU
row,Compound,pest or weed control at 140 g/ha [%]
1,"COC(=O)c1nc(-c2ccc(-c3ccc(F)cc3)cc2Cl)ccc1Cl [F25, methyl 3-chloro-6-(3-chloro-4′-fluoro-[1, 1′-biphenyl]-4-yl) picolinate]",30 to 44
2,"COC(=O)c1nc(-c2ccc3c(c2F)OCO3)ccc1Cl [F85, Methyl 3-chloro-6-(4-fluorobenzo[d][1,3]dioxol-5-yl)picolinate]",0 to 29

# Same assay, conditions: post-emergence, 336 h, STEME: common chickweed (Stellaria media), 140 g ai/ha, 14 days after application, read-out: Visual Growth Reduction (%) 14 Days After Application, STEME
row,Compound,pest or weed control at 140 g/ha [%]
1,"COC(=O)c1nc(-c2ccc(-c3ccc(F)cc3)cc2Cl)ccc1Cl [F25, methyl 3-chloro-6-(3-chloro-4′-fluoro-[1, 1′-biphenyl]-4-yl) picolinate]",0 to 29
2,"COC(=O)c1nc(-c2ccc3c(c2F)OCO3)ccc1Cl [F85, Methyl 3-chloro-6-(4-fluorobenzo[d][1,3]dioxol-5-yl)picolinate]",0 to 29

# Same assay, conditions: post-emergence, 336 h, TRZAS: wheat, spring (Triticum aestivum), 140 g ai/ha, 14 days after application, read-out: Visual Growth Reduction (%) 14 Days After Application, TRZAS
row,Compound,pest or weed control at 140 g/ha [%]
1,"COC(=O)c1nc(-c2ccc(-c3ccc(F)cc3)cc2Cl)ccc1Cl [F25, methyl 3-chloro-6-(3-chloro-4′-fluoro-[1, 1′-biphenyl]-4-yl) picolinate]",0 to 29
2,"COC(=O)c1nc(-c2ccc3c(c2F)OCO3)ccc1Cl [F85, Methyl 3-chloro-6-(4-fluorobenzo[d][1,3]dioxol-5-yl)picolinate]",0 to 29
